Where a SMILES comes first, the peptide text is derived from it. The star is where a group is joined. Cbz = O=C(OCc1ccccc1)*
What was measured:
H3K4me3 = experiment: Western blot of H3K4me3 in yeast cells treated with glucose, 2-DG, FBP or pyruvate; assay type: cell-based, budding yeast (Saccharomyces cerevisiae); details: for H3K4me3 level after FBP or pyruvate treatment: spheroplasts (Zymolase), different concentrations of FBP or pyruvate, 3 hr
Source text: To examine the effect of glucose on histone modifications, we grew yeast cells in 2% glucose-containing medium (YPD) until log phase. Cells were collected and then grown in the medium containing different concentrations of glucose for 0.5 hr.
PKA is activated by cyclic AMP (cAMP), which binds to its inhibitory subunit, Bcy1 and causes its dissociation (Fig. 1g). We thus examined H3K4me3 in deletion mutants of cAMP phosphodiesterases PDE1 and PDE2, which encode enzymes to hydrolyze cAMP and inactivate PKA[39],[40]. […] To test whether the Ras-cAMP-PKA pathway mediates glucose-induced H3K4me3, we examined H3K4me3 in ras1Δ and ras2Δ mutants. […] Ras1/2 can be activated by glycolysis-derived fructose-1,6-biphosphate (FBP) via Cdc25[6] (Fig. 1g).
To examine the effect of glucose on histone modifications, yeast cells were grown in 2% glucose-containing YPD (Yeast Extract Peptone Dextrose) medium until OD600 of 0.7–1.0. Cells were then collected, washed and resuspended in YP medium for 3 hr followed by treatment with different concentrations of glucose for 0.5 hr. For 1NM-PP1 (MCE, HY-13804) treatment, cells were grown in 2% YPD until OD600 of 0.7–1.0. Cells were then treated with 25 μM 1NM-PP1 for 0.5 hr. For FBP and pyruvate treatment, cells were pre-treated with Zymolase (Mpbio, 08320921) to increase the permeability. In brief, cells were grown in YPD medium until OD600 of 0.7–1.0, centrifuged and resuspended in 1 ml SB buffer (100 mM Sorbitol, 20 mM Tris pH 7.4). 10 μl Zymolase was then added and incubated at 30 °C for 15 min. The spheroplasts were washed and cultured in YPD medium containing different concentrations of FBP and pyruvate for 3 hr.
(§1) Cells were grown in 5 ml YPD or selective medium until OD600 of 0.7–1.0. Cells were harvested and lysed in alkaline lysis buffer (2 M NaOH, 8% 2-mercaptoethanol). After centrifugation, the protein pellet was resuspended in 150 μl 2×SDS-sample buffer. Protein samples were separated by 8–15% SDS-PAGE and transferred to PVDF membrane. The blots were probed with primary antibodies followed by incubation with horseradish peroxidase-labelled IgG secondary antibodies. The protein bands were visualized using the ECL Chemiluminescence Detection Kit (Bio-Rad, 170–5061) and quantified with Image J software (v.1.8.0).

WT Jhd2 = biological target: T1, WT Jhd2 (Saccharomyces cerevisiae, UniProt P47156); experiment: Jhd2 protein level in WT Jhd2 cells with MG132; assay type: cell-based, budding yeast (Saccharomyces cerevisiae); details: for Jhd2/GAPDH: WT +MG132, WT without MG132 = 1, Figure 5c
T1 construct: 3xFLAG (C); made in house; host or cells: Saccharomyces cerevisiae BY4741, genomic JHD2-3xFLAG::KAN
Protocol: (§2) To determine how Tpk2-mediated Jhd2 phosphorylation regulates Jhd2 stability, we treated WT Jhd2 and Jhd2-S321A, S340A cells with MG132, the proteasome inhibitor. […] We also examined Jhd2 in a temperature-sensitive proteasome-deficient mutant (cim3-1), which is defective in ATPase activity of 26 S proteasome.
as §1

Jhd2-S321A, S340A = biological target: T2, Jhd2-S321A, S340A (Saccharomyces cerevisiae, UniProt P47156, S321A/S340A); experiment: Jhd2 protein level in Jhd2-S321A, S340A cells with MG132; assay type: cell-based, budding yeast (Saccharomyces cerevisiae); details: for Jhd2/GAPDH: Jhd2-S321A,S340A +MG132, Figure 5c
T2 construct: 3xFLAG (C); made in house; host or cells: Saccharomyces cerevisiae BY4741, genomic JHD2 S321A S340A-3xFLAG
Protocol: as §2, §1

Rpd3 = Rpd3 (UniProt P32561); experiment: in vivo co-IP, Western blot; details: reference: WT Jhd2; sites S321,S340
histone H3 1-23 [1] = biological target: histone H3 1-23 (UniProt P61830); experiment: biotinylated peptide pull-down, Western blot; details: reference: WT Jhd2; sites S321,S340
histone H3 1-23 [2] = biological target: histone H3 1-23 (UniProt P61830); experiment: biotinylated peptide pull-down, Western blot; details: reference: WT Jhd2; sites S321,S340; remark: listed apart in the source
histone H3 1-23 [3] = biological target: histone H3 1-23 (UniProt P61830); experiment: biotinylated peptide pull-down, Western blot; details: reference: WT Jhd2; sites S321,S340; remark: listed apart in the source
[4] = biological target: T3, Tpk2-phosphorylated Jhd2-FLAG (S. cerevisiae (budding yeast), UniProt P47156 1-728, phosphoserine at 321 and 340 (by purified Tpk2 in vitro)); experiment: co-IP; in vitro: dephosphorylated Jhd2 immobilized on anti-FLAG beads, incubated with or without purified Tpk2, Tpk2 removed, then incubated with purified Not4; details: both partners purified
T3 construct: Jhd2 of budding yeast, phosphorylated in vitro by Tpk2 at S321 and S340; also called immobilized phosphorylated Jhd2; not shown: FLAG, C-terminal, kept
T3 sequence (looked up): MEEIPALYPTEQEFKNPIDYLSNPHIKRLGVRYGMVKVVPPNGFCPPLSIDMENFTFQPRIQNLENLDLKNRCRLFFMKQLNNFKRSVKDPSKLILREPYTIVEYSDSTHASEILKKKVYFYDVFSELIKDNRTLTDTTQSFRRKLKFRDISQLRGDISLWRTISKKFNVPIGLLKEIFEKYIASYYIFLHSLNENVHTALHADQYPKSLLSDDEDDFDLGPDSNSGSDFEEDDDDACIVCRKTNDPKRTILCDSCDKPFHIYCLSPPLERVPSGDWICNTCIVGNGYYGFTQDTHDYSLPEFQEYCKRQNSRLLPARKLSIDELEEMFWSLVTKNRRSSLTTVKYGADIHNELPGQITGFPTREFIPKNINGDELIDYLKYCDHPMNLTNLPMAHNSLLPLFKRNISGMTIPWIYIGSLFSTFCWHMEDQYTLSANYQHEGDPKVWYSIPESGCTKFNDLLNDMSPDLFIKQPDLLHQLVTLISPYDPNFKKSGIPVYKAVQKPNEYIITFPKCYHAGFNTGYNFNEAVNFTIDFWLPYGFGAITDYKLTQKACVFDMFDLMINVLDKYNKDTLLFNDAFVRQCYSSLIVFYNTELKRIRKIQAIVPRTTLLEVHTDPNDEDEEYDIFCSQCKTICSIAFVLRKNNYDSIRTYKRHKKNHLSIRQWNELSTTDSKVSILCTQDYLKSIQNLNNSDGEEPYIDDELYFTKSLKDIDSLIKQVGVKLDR

Jhd2-FLAG = biological target: T4, Jhd2-FLAG (S. cerevisiae (budding yeast), UniProt P47156 1-728, phosphoserine at 321 and 340 (phosphorylated in vivo by Tpk2; extent not stated)); experiment: co-IP; yeast whole cell extract digested with MNase, anti-FLAG M2 agarose 1 hr 4 °C, washed with 350 mM NaCl, 0.1% NP-40, Western blots; WT and tpk2Δ cells; details: partners not purified
T4 construct: Jhd2, JmjC domain-containing H3K4 demethylase of budding yeast; tag integrated at the genomic locus; this is named in the assay format or readout; also called WT Jhd2; FLAG-purified Jhd2; not shown: FLAG, C-terminal, kept
T4 sequence (looked up): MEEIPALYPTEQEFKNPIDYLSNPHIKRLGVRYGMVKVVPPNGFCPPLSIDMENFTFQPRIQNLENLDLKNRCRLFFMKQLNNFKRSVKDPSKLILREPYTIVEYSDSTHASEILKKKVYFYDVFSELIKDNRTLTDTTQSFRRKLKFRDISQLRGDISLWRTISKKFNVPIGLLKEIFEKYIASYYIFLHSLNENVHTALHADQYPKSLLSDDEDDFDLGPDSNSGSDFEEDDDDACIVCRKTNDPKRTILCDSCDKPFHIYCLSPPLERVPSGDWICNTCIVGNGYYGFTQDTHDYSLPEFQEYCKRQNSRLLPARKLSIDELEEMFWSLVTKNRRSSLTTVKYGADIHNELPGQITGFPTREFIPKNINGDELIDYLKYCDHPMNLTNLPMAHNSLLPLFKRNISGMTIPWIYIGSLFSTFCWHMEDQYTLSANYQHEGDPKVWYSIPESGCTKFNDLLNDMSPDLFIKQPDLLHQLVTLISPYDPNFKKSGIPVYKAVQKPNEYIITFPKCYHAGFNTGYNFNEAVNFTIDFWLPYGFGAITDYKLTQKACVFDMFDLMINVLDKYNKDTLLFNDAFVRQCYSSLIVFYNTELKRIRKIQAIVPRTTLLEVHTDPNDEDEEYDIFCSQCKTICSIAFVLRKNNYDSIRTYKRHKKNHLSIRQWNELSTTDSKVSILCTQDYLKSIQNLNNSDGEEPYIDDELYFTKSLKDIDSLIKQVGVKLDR

T2 sequence (P47156 whole entry S321A/S340A): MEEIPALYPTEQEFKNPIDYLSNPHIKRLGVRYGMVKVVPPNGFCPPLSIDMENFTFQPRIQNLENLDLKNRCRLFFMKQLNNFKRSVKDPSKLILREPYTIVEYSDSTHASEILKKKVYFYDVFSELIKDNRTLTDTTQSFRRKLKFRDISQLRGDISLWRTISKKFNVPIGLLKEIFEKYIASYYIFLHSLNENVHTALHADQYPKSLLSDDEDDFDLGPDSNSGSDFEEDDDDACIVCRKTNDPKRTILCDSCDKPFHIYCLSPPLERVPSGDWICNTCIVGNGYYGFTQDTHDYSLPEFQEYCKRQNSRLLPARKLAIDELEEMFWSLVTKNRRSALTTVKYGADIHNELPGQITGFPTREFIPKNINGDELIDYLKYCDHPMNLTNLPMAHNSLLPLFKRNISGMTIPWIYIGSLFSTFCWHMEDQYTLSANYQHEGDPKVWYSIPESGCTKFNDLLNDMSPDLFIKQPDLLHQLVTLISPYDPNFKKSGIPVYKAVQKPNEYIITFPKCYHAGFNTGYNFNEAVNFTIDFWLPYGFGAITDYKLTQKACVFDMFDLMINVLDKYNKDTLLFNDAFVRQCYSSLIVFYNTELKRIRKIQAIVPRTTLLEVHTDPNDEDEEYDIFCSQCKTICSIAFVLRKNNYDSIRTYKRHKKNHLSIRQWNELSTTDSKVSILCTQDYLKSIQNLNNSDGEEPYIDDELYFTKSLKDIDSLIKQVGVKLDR

O=CC[C@@H](O)[C@H](O)[C@H](O)CO [2-DG, 2-Deoxy-D-glucose]
H3K4me3 level after blocking glycolysis (H3K4me3; 2-DG): significantly reduced H3K4me3

O=C(COP(=O)(O)O)[C@@H](O)[C@H](O)[C@H](O)COP(=O)(O)O [FBP, fructose-1,6-biphosphate]
H3K4me3 level after FBP or pyruvate treatment (H3K4me3): increased H3K4me3 in a dose-dependent manner

CC(C)C[C@@H](C=O)NC(=O)[C@H](CC(C)C)NC(=O)[C@H](CC(C)C)NC(=O)OCc1ccccc1 [MG132] (Cbz-Leu-Leu-Leu-aldehyde)
Jhd2 protein level, WT Jhd2 (WT Jhd2; MG132, Western blot): significantly increased WT Jhd2 protein levels | Jhd2/GAPDH (WT Jhd2; replicate 1): 1.233 | Jhd2/GAPDH (WT Jhd2; replicate 2): 1.396 | Jhd2/GAPDH (WT Jhd2; replicate 3): 1.451 | Jhd2/GAPDH (WT Jhd2; replicate 4): 1.135 | Jhd2/GAPDH (Jhd2-S321A, S340A; WT without MG132 = 1, Jhd2-S321A,S340A without MG132 = 1.51305, replicate 4): 2.104 | Jhd2/GAPDH (Jhd2-S321A, S340A; WT without MG132 = 1, Jhd2-S321A,S340A without MG132 = 1.6488, replicate 2): 1.451 | Jhd2/GAPDH (Jhd2-S321A, S340A; WT without MG132 = 1, Jhd2-S321A,S340A without MG132 = 1.64948, replicate 1): 1.2682 | Jhd2/GAPDH (Jhd2-S321A, S340A; WT without MG132 = 1, Jhd2-S321A,S340A without MG132 = 1.95118, replicate 3): 2.131 | Jhd2 protein level, Jhd2-S321A, S340A (Jhd2-S321A, S340A; MG132, Western blot): had no significant effect on Jhd2-S321A, S340A protein level

CC(=O)C(=O)O [pyruvate]
H3K4me3 level after FBP or pyruvate treatment (H3K4me3): FBP but not pyruvate treatment increased H3K4me3

Jhd2 (from UniProt P47156) Jhd2-S321A, S340A
binding against the reference (Rpd3): stronger | binding against the reference (histone H3 1-23 [1]): stronger | binding against the reference (histone H3 1-23 [2]): stronger | binding against the reference (histone H3 1-23 [3]): stronger

B1: Not4 (enzyme, S. cerevisiae (budding yeast), UniProt P34909 1-587, looked up)
chain: MMNPHVQENLQAIHNALSNFDTSFLSEDEEDYCPLCIEPMDITDKNFFPCPCGYQICQFCYNNIRQNPELNGRCPACRRKYDDENVRYVTLSPEELKMERAKLARKEKERKHREKERKENEYTNRKHLSGTRVIQKNLVYVVGINPPVPYEEVAPTLKSEKYFGQYGKINKIVVNRKTPHSNNTTSEHYHHHSPGYGVYITFGSKDDAARCIAQVDGTYMDGRLIKAAYGTTKYCSSYLRGLPCPNPNCMFLHEPGEEADSFNKRELHNKQQAQQQSGGTAFTRSGIHNNISTSTAGSNTNLLSENFTGTPSPAAMRAQLHHDSHTNAGTPVLTPAPVPAGSNPWGVTQSATPVTSINLSKNSSSINLPTLNDSLGHHTTPTTENTITSTTTTTNTNATSHSHGSKKKQSLAAEEYKDPYDALGNAVDFLDARLHSLSNYQKRPISIKSNIIDEETYKKYPSLFSWDKIEASKKSDNTLANKLVEILAIKPIDYTASVVQFLQSVNVGVNDNITITDNTKTPTQPIRLQTVSQQIQPPLNVSTPPPGIFGPQHKVPIQQQQMGDTSSRNSSDLLNQLINGRKIIAGN
notes: Not4, E3 ubiquitin ligase of budding yeast; also called purified Not4; source: S. cerevisiae
binding result [4]: binds | binding result (Jhd2-FLAG): binds
